Patent publication US20250032569A1, “COMPOSITION, IN PARTICULAR COSMETIC FORMULATION, COMPRISING A VERBASCOSIDE EXTRACT” (MEDENA AG, priority 2021, published 2025)

Legend:
[1] = organic (synthetic) chemical sunscreens, Table 1; cited from earlier work
[2] = In vitro spectrophotometric SPF calculated by the Sayre equation (Eq. 1); type: physicochemical
Description: Each sample (1 ml) was placed in a 1 cm quartz cell. The absorbance was measured between 250-600 nm at an interval of every 1 nm using a Varian UV/Vis spectrophotometer (Cary 50 Scan). The following parameters were measured and calculated for each sample assuming standard application to the skin—2 mg/cm^2: • the SPF values. • the critical wavelength λC • the UVA/UVB ratio 1. […]
Each sample (1 ml) was placed in a 1 cm quartz cell. The absorbance was measured between 250-600 nm at an interval of every 1 nm using a Varian UV/Vis spectrophotometer (Cary 50 Scan). The following parameters were measured and calculated for each sample assuming standard application to the skin—2 mg/cm^2: • the SPF values. • the critical wavelength λC • the UVA/UVB ratio
The SPF values in vitro were calculated according to the method described by Sayre et al., (Sayre, R M; Agin, P P; LeVee, G J; Marlowe, E. A comparison of in vivo and in vitro testing of sunscreening formulas, Photochem. Photobiol. 1979, 29, 559-566). The calculation was done using Equation 1: […]
where Ss(λ) is the spectral irradiance, Ser(λ) is the CIE erythema action spectrum and T(λ) is the transmission of the sunscreen. The values of Ss(λ) and Ser(λ) were taken from the literature (B. L. Diffey, J. Robson. A new substrate to measure sunscreen protection factors throughout the ultraviolet spectrum, J. Soc. Cosmet. Chem. 1989, 40, 127-133). […]
SPF values were calculated using Eq. 1 for sun protective cosmetics applied at 2 mg/cm^2 (standard application).
The same methods and equations as in the case of plant extracts were applied.
Solutions of sunscreens at concentrations 0.001% were prepared in duplicate and UV-visible absorption spectra were recorded over the range of 250-600 nm (FIG. 1). On the basis of these spectra, the transmission of the sunscreen (T) was found from monochromatic absorbance values at wavelength λ: T=10^−A(λ).
The SPF in vitro was calculated according to the method described by Sayre et al., (Sayre, R M; Agin, P P; LeVee, G J; Marlowe, E. A comparison of in vivo and in vitro testing of sunscreening formulas, Photochem. Photobiol. 1979, 29, 559-566) following equation 1: […]
where Ss(λ) is the spectral irradiance, Ser(λ) the CIE erythema action spectrum and T(λ) the trans-mission of the sunscreen. Data for Ss(λ) and Ser(λ) are available in the literature (B. L. Diffey, J. Robson. A new substrate to measure sunscreen protection factors throughout the ultraviolet spectrum, J. Soc. Cosmet. Chem. 1989, 40, 127-133).
The SPF values were calculated using Eq 1 with the application conditions 2 mg/cm^2 (Standard application recommended by the European Agency).
The SPF value for lotions were calculated using Eq. 1 for three application conditions at 2 mg/cm^2 (standard application), 2.5 mg/cm^2 and 3 mg/cm^2. In the same Table 22, critical wavelength and the UVA/UVB ratios are shown.

[3] = SPF calculated by modified Sayre method; type: physicochemical
Description: In the following Table 20, there are SPF values obtained in vitro spectrophotometrically, which have been calculated by a classical Sayre method (Sayre, R M; Agin, P P; LeVee, G J; Marlowe, E. A comparison of in vivo and in vitro testing of sunscreening formulas, Photochem. Photobiol. 1979, 29, 559-566) and modified Sayre method, which gives results similar to those obtained in the in vivo tests recommended by COLIPA.
• (1) For water insoluble chemical filters, the modified Sayre method gives results close to those calculated by Simulator-Calculator (BASF) and the in vivo tests. The Simulator-Calculator uses the modified Sayre method assuming an exponentiation equal to 0.827 (X^0.827). • (2) For water soluble natural filters, the same modified Sayre method would give results close to those obtained by the in vivo tests (predicted by Simulator-Calculator). Examples of Cosmetic Compositions with Fully Natural Sun Protective Factors • 1. Sun protective lotion SPF 50+, high UV-A protection • 2. Sun protective cream SPF 50+, high UV-A protection • 3. Sun protective serum for pregnant and milking women SPF 50+, high UV-A protection • 4. Sun protective milk for babies SPF 50+, high UV-A protection • 5. Sun protective lotion SPF 20-30, high UV-A protection for people with highly sensitive skin E. Analysis of Sun Protective Parameters of Two Lotions and Cream Containing Lippia citriodora Extract with 40% of Verbascoside.

[4] = Critical wavelength (λC) from absorption spectra (Eq. 2); type: physicochemical; details: for critical wavelength: chemical sunscreen, no concentration stated
Description: The Critical Wavelength λC is the wavelength, where the area under the absorbance spectrum for the irradiated product from 290 nm to λC is equal to 90% of the integral value of the absorbance spectrum from 290 to 400 nm and was calculated using Eq. 2:
where A (λ)=monochromatic absorbance values at wavelength λ. The critical wavelength was determined for all samples in order to assess a degree of UVA protection. In cases where the critical wavelength is lower than 370 nm, the protection from UVA is less evident.
The Critical Wavelength λC value for the test product was defined as that wavelength where the area under the absorbance spectrum of the sample from 290 nm to λC is 90% of the integral of the absorbance spectrum from 290 to 400 nm and is calculated using Eq. 2:
[formula] • A(λ)=monochromatic absorbance values at wavelength λ

[5] = UVA/UVB ratio from absorption spectra (Eq. 3) and Boots UVA Star Rating; type: physicochemical; details: for ratio UVA/UVB: chemical sunscreen, no concentration stated
Description: Critical Wavelength (λC) and the UVA/UVB ratios were also calculated from the absorption spectra and were collected in Table 2. […] According to these International indications, aqueous solutions of Haberlea rhodopensis with different concentrations of myconoside can be attributed to the group of good protection (2 UVA Star Rating).
In order to further characterize solutions as skin photo-protectors from UVA, the UVA/UVB ratio was calculated using Eq. 3: […]
In order to characterize the ability of creams to protect skin against UVA the UVA/UVB ratio was calculated using Eq. 3: […]

[6] = UV filter 0.5% in sun protective cosmetic (Table 20)
[7] = UV filter 1.0% in sun protective cosmetic (Table 20)
[8] = UV filter 2.5% in sun protective cosmetic (Table 20)
[9] = UV filter 5% in sun protective cosmetic (Table 20)
[10] = UV filter 10% in sun protective cosmetic (Table 20)
[11] = chemical UV filter 0.5% in sun protective solution (Tables 12-19)
[12] = chemical UV filter 1% in sun protective solution (Tables 12-19)
[13] = chemical UV filter 2.5% in sun protective solution (Tables 12-19)
[14] = chemical UV filter 5% in sun protective solution (Tables 12-19)
[15] = chemical UV filter 10% in sun protective solution (Tables 12-19)
[16] = chemical UV filter 0.5% in sun protective solution
[17] = chemical UV filter 1% in sun protective solution
[18] = chemical UV filter 2.5% in sun protective solution
[19] = chemical UV filter 5% in sun protective solution
[20] = chemical UV filter 10% in sun protective solution
[21] = UV filter 0.5% in sun protective cosmetic
[22] = UV filter 1.0% in sun protective cosmetic
[23] = UV filter 2.5% in sun protective cosmetic
[24] = UV filter 5% in sun protective cosmetic
[25] = UV filter 10% in sun protective cosmetic

SMILES | Absorbs UV-A [1] | SPF values calculated by the Sayre equation [2, 6] | SPF values calculated by the Sayre equation [2, 7] | SPF values calculated by the Sayre equation [2, 8] | SPF values calculated by the Sayre equation [2, 9] | SPF values [2, 11] | SPF values [2, 12] | SPF values [2, 13] | SPF values [2, 14] | SPF values [2, 15] | Critical wavelength (λC) [4, 16] | Critical wavelength (λC) [4, 17] | Critical wavelength (λC) [4, 18] | Critical wavelength (λC) [4, 19] | Critical wavelength (λC) [4, 20] | critical wavelength [4] | SPF values calculated by Modified Sayre [3, 21] | SPF values calculated by Modified Sayre [3, 22] | SPF values calculated by Modified Sayre [3, 23] | SPF values calculated by Modified Sayre [3, 24] | also measured
CC1(C)C2CCC1(CS(=O)(=O)O)C(=O)C2=Cc1ccc(C=C2C(=O)C3(CS(=O)(=O)O)CCC2C3(C)C)cc1 [Mexoryl SX] | UV-A | – | – | – | – | – | – | – | – | – | – | – | – | – | – | – | – | – | – | – | –
Cc1cc(CC(C)C[Si](C)(O[Si](C)(C)C)O[Si](C)(C)C)c(O)c(-n2nc3ccccc3n2)c1 (stereo not shown) [Mexoryl XL] | UV-A | – | – | – | – | – | – | – | – | – | – | – | – | – | – | – | – | – | – | – | Absorbs UV-B [1]: UV-B
O=S(=O)([O-])c1cc(S(=O)(=O)O)cc2[nH]c(-c3ccc(-c4nc5c(S(=O)(=O)[O-])cc(S(=O)(=O)O)cc5[nH]4)cc3)nc12.[Na+].[Na+] [Neoheliopan AP] | UV-A | – | – | – | – | – | – | – | – | – | – | – | – | – | – | – | – | – | – | – | –
C[C@@H]1O[C@@H](O[C@@H]2[C@@H](O)[C@H](OCCc3ccc(O)c(O)c3)O[C@H](CO)[C@H]2OC(=O)/C=C/c2ccc(O)c(O)c2)[C@H](O)[C@H](O)[C@H]1O [Verbascoside, β-(3′,4′-dihydroxyphenyl)ethyl-O-α-L-rhamnopyranosyl (1->3)-β-D-(4-O-caffeoyl)-glucopyranoside] | – | – | – | – | – | – | – | – | – | – | – | – | – | – | – | – | – | – | – | – | SPF values calculated by the Sayre equation ([2]; verbascoside or its analogues from plant extracts 1.0% in sun protective cosmetic (Table 20)): 3.9; SPF values calculated by the Sayre equation ([2]; verbascoside or its analogues from plant extracts 2.5% in sun protective cosmetic (Table 20)): 23; SPF values calculated by the Sayre equation ([2]; verbascoside or its analogues from plant extracts 5% in sun protective cosmetic (Table 20)): 110; SPF values calculated by the Sayre equation ([2]; verbascoside or its analogues from plant/plant cell culture extracts 0.5% in sun protective cosmetic (Table 20)): 2.0; SPF values calculated by Modified Sayre ([3]; verbascoside or its analogues from plant extracts 0.5% in sun protective cosmetic, SPF = a*X^0.827): 2.2; SPF values calculated by Modified Sayre ([3]; verbascoside or its analogues from plant extracts 1.0% in sun protective cosmetic): 3.9; SPF values calculated by Modified Sayre ([3]; verbascoside or its analogues from plant extracts 2.5% in sun protective cosmetic): 8.3; SPF values calculated by Modified Sayre ([3]; verbascoside or its analogues from plant extracts 5% in sun protective cosmetic): 14.8; SPF values calculated by Modified Sayre ([3]; verbascoside or its analogues from plant extracts 8% in sun protective cosmetic): 22; SPF values calculated by Modified Sayre ([3]; verbascoside or its analogues from plant extracts 10% in sun protective cosmetic): 26; SPF values calculated by Modified Sayre ([3]; verbascoside or its analogues from plant extracts 12% in sun protective cosmetic): 31; SPF values calculated by Modified Sayre ([3]; verbascoside or its analogues from plant extracts 20% in sun protective cosmetic): 52
CCCCC(CC)COC(=O)c1ccc(Nc2nc(Nc3ccc(C(=O)NC(C)(C)C)cc3)nc(Nc3ccc(C(=O)OCC(CC)CCCC)cc3)n2)cc1 (stereo not shown) [diethylhexyl butamido triazone, Diethylhexyl butamido triazone] | – | 3.2 | 9.0 | 39 | 98 | 4.1 | 10 | 23 | 44 | 131 | 337 nm | 337 nm | 337 nm | 337 nm | 337 nm | 337 nm | 3.2 | 4.6 | 7.4 | 10.6 | SPF values calculated by the Sayre equation [2, 10]: 394; SPF values ([2]; chemical UV filter 10% in sun protective solution (Tables 12-19), listed as ethylhexyl butamido triazone): 137; SPF values calculated by Modified Sayre [3, 25]: 15.3
CCCCC(CC)COC(=O)c1ccc(Nc2nc(Nc3ccc(C(=O)OCC(CC)CCCC)cc3)nc(Nc3ccc(C(=O)OCC(CC)CCCC)cc3)n2)cc1 (stereo not shown) [ethylhexyl triazone, Ethylhexyl triazone] | – | 2.8 | 8 | 69 | 389 | 5.2 | 14 | 33 | 74 | 271 | 341 nm | 341 nm | 341 nm | 341 nm | 341 nm | 341 nm | 2.8 | 4.1 | 6.8 | 10.1 | SPF values ([2]; chemical UV filter 2.5% in sun protective solution (Tables 12-19), listed as ethyl hexyl triazone): 44; UVA/UVB [5, 16]: 0.21; UVA/UVB [5, 17]: 0.21; UVA/UVB [5, 18]: 0.21; UVA/UVB [5, 19]: 0.21; UVA/UVB [5, 20]: 0.21; ratio UVA/UVB [5]: 0.21
CCCCC(CC)COC(=O)C(C#N)=C(c1ccccc1)c1ccccc1 (stereo not shown) [octocrylene, Octocrylene] | – | 1.9 | 4 | 13 | 26.5 | 10 | 25 | 42 | 61 | 90 | 342 nm | 342 nm | 342 nm | 342 nm | 342 nm | 342 nm | 1.6 | 2.6 | 4.7 | 7.4 | SPF values calculated by the Sayre equation [2, 10]: 36.8; UVA/UVB [5, 16]: 0.22; UVA/UVB [5, 17]: 0.22; UVA/UVB [5, 18]: 0.22; UVA/UVB [5, 19]: 0.22; UVA/UVB [5, 20]: 0.22; ratio UVA/UVB [5]: 0.22; SPF values calculated by Modified Sayre [3, 25]: 11.7
